Experimental data published in US20170216452A1, “ANTIBODIES AND ANTIBODY FRAGMENTS FOR SITE-SPECIFIC CONJUGATION” (Pfizer Inc., priority 2015, published 2017).
Entries after “also recorded” stand apart in the source; their conditions may differ. Where two headings read alike, the source gives them in different places. Square brackets hold non-standard residues; d marks the D form. Peptide text beside a SMILES is read from it. * marks the point of attachment. Dolaproine = CO[C@@H]([C@@H]1CCCN1)[C@@H](C)C(=O)O; Dil = CC[C@H](C)[C@H](NC)[C@@H](CC(=O)O)OC; Doe = c1ccc(C[C@H](N*)c2nccs2)cc1; Aib = CC(C)(N)C(=O)O

How the values were obtained:
[1] = system: N87-TM cells (N87-TM-1, N87-TM-2); experiment: Cytotoxicity studies (MTS) on T-DM1 resistant N87-TM cells made in vitro; format: cell-based
Experimental: N87 cells were passaged into two separate flasks and each flask was treated identically with respect to the resistance-generation protocol to enable biological duplicates. […] The procedure was intended to simulate the chronic, multi-cycle (on/off) dosing at maximally tolerated doses typically used for cytotoxic therapeutics in the clinic, followed by a recovery period. […] Drug selection pressure was removed after ˜3-4 months of cycle treatments when the level of resistance no longer increased after continued drug exposure. […] Data were collected from various thawed cryopreserved populations derived from a single selection, over approximately 1-2 years after model development to ensure consistency in the results.
Cells were seeded in 96-well plates at low density, then treated the following day with ADCs and unconjugated payloads at 3-fold serial dilutions at 10 concentrations in duplicate. Cells were incubated for 4 days in a humidified 37° C./5% CO2 incubator. The plates were harvested by incubating with CellTiter® 96 AQueous One MTS Solution (Promega, Madison, Wis.) for 1.5 hours and absorbance measured on a Victor plate reader (Perkin-Elmer, Waltham, Mass.) at wavelength 490 nm. IC50 values were calculated using a four-parameter logistic model with XLfit (IDBS, Bridgewater, N.J.).

[2] = system: N87 parental cells; experiment: Cytotoxicity studies (CellTiter Glo, 96 h) on parental N87 cells (Example 15); format: cell-based; conditions: read-out: sensitivity to free payload (IC50), N87
Experimental: (§1) Cells were incubated for 96 hours in a humidified 37° C./5% CO2 incubator.

[3] = system: N87-T-DM1 cells (Mouse #7, #17, #2); experiment: Cytotoxicity studies (CellTiter Glo, 96 h) on cells relapsed from T-DM1 treatment in vivo; format: cell-based; conditions: for IC50: Mus musculus; for sensitivity of T-DM1 resistant cells generated in vivo: N87-T-DM1 cells compared to parental
Experimental: as §1

[4] = system: N87 gastric xenografts; experiment: N87 gastric xenograft model; format: in vivo, mouse; conditions: IV Q4d×4
Experimental: (§4) For each model described below the first dose was given on Day 1. The tumors were measured at least once a week and their volume was calculated with the formula: tumor volume (mm^3)=0.5×(tumor width^2)(tumor length). The mean tumor volumes (±S. E. M.) for each treatment group were calculated having a maximum of 8-10 animals and a minimum of 6-8 animals to be included.
When the tumors reached a volume of 250 to 450 mm^3, the tumors were staged to ensure uniformity of the tumor mass among various treatment groups.

[5] = system: N87 cell line xenograft tumors; experiment: Bystander effect, immunohistocytochemistry (pHH3, human IgG) of N87 xenograft tumors; format: in vivo, mouse; conditions: single dose T-DM1 6 mg/kg or T-vc0101 3 mg/kg, tumors harvested 96 hours later
Text: Tumor sections were stained for human IgG to detect ADC bound to tumor cells and phosphhistone H3 (pHH3) to detect mitotic cells as readout of the proposed mechanism of action for the payloads of both ADCs.

[6] = system: N87 tumors; experiment: In vivo efficacy in N87 tumors in NSG mice; set-up: species or system mouse; conditions: N87 model; 6 and 10 mg/kg Q4D×4
Experimental: (§5) In order to determine if the resistance observed in cell culture was recapitulated in vivo, parental N87 cells and N87-TM-2 cells were expanded and injected into the flanks of Female NOD scid gamma (NSG) immunodeficient mice (NOD. Cg-Prkdcscid II2rgtm1Wjl/SzJ) obtained from The Jackson Laboratory (Bar Harbor, Me.). Mice were injected subcutaneously in the right flank with suspensions of either N87 or N87-TM cells (7.5×10^6 cells per injection, with 50% Matrigel). Mice were randomized into study groups when tumors reached ˜0.3 g (˜250 mm^3). […] Tumors were measured weekly and mass calculated as volume=(width×width×length)/2. Time-to-event analysis (tumor doubling) was conducted and significance evaluated by Log-rank (Mantel-Cox) test.

[7] = system: N87-TM tumors; experiment: In vivo efficacy in T-DM1 resistant N87-TM tumors in NSG mice; set-up: species or system mouse; conditions: N87-TM-2 model; 6 and 10 mg/kg
Experimental: as §5

[8] = system: N87 xenografts; experiment: T-DM1 resistance generated in vivo in N87 xenografts and follow-on treatment; set-up: species or system mouse; conditions: […] weekly
Experimental: Tumors were measured twice per week or weekly and mass calculated as volume=(width×width×length)/2.

[9] = system: JIMT-1 breast xenografts; conditions: even at 6 mg/kg, IV Q4d×4
Experimental: as §4
To generate xenografts, nude (Nu/Nu) female mice were implanted subcutaneously with 5×10^6 JIMT-1 cells (DSMZ# ACC-589) in 50% Matrigel (BD Biosciences). When the tumors reached a volume of 200 to 250 mm^3, the tumors were staged to ensure uniformity of the tumor mass among various treatment groups.

[10] = system: 144580 breast patient-derived xenografts; conditions: all doses tested (1, 5, 3 and 6 mg/kg), Q4d×4
Experimental: as §4
The 144580 breast patient-derived xenografts were subcutaneously passaged in vivo as fragments from animal to animal in nude (Nu/Nu) female mice. When the tumors reached a volume of 150 to 300 mm^3, they were staged to ensure uniformity of the tumor size among various treatment groups.

[11] = system: 37622 patient-derived xenografts; conditions: 10 mg/kg, Q4d×4
Experimental: as §4
The 37622 patient-derived xenografts were subcutaneously passaged in vivo as fragments from animal to animal in nude (Nu/Nu) female mice. When the tumors reached a volume of 150 to 300 mm^3, they were staged to ensure uniformity of the tumor size among various treatment groups.

[12] = system: HT29 colon carcinoma cells (EDB+FN negative); experiment: In vitro cytotoxicity of anti-EDB ADCs (Cell Titer Glo, 4 days); format: cell-based, human; conditions: four days, ng/ml of antibody
Experimental: Proliferating WI38-VA13 or HT29 cells were harvested from culture flasks with non-enzymatic cell dissociation buffer and cultured overnight in 96-well plates (Corning) at 1000 cells/well in a humidified chamber (37° C., 5% CO2). […] In some experiments, cells were plated at 1500 cells/well and treated the same day. […] On harvest day, 50 μl of Cell Titer Glo (Promega) was added to the cells and incubated 0.5 hours at room temperature. […] Relative cell viability was determined as a percentage of untreated control wells. IC50 values were calculated using four-parameter logistic model #203 with XLfit v4.2 (IDBS).

[13] = system: PDX-NSX-11122; experiment: PDX-NSX-11122 NSCLC PDX model; format: in vivo, mouse
Text: (§2) To generate PDX models, tumors were collected from donor animals and tumor fragments approximately 3×3 mm were implanted subcutaneously into the flank of female athymic nude mice (for PDX-NSX-11122 model) or NOD SCID mice (for PDX-PAX-13565 and PDX-PAX-12534 models) by using a 10 gage trocar. When average tumor volume reached approximately 160 to 260 mm^3 the mice were randomized into treatment groups, with 7-10 mice in each group. ADCs or vehicle (PBS) dosing regime and administration route as well as tumor measurement procedures are the same as described above for CLX models.

[14] = system: H-1975; experiment: H-1975 NSCLC CLX model; format: in vivo, mouse
Text: (§3) To generate CLX models, 8×10^6 to 10×10^6 cells of H-1975, HT29, or Ramos tumor lines were implanted into female athymic nude mice subcutaneously. Ramos and H-1975 cells for inoculation were suspended in 50% and 100% Matrigel (BD Biosciences), respectively. For the Ramos model, the animals received whole body irradiation (4 Gy) before cell inoculation to facilitate the establishment of tumors. When the average tumor volume reached approximately 160 to 320 mm^3, the animals were randomized into treatment groups, with 8-10 mice in each group. ADCs or vehicle (PBS) were administered intravenously on day 0 and then the animals were dosed once every 4 days for 4 to 8 doses. Tumors were measured once or twice weekly and tumor volume was calculated as volume (mm^3)=(width×width×length)/2.

[15] = system: HT29; experiment: HT29 colon CLX model; format: in vivo, mouse; conditions: 3 mg/kg
Text: as §3

[16] = system: PDX-PAX-13565; experiment: PDX-PAX-13565 pancreatic PDX model; format: in vivo, mouse; conditions: 0.3, 1 and 3 mg/kg
Text: as §2

[17] = system: PDX-PAX-12534; experiment: PDX-PAX-12534 pancreatic PDX model; format: in vivo, mouse; conditions: 0.3, 1 and 3 mg/kg
Text: as §2

[18] = system: Ramos; experiment: Ramos lymphoma CLX model; format: in vivo, mouse; conditions: 3 mg/kg
Text: as §3

[19] = read-out: sensitivity to free payload (IC50), N87-T-DM1_Ms2
[20] = read-out: sensitivity to free payload (IC50), N87-T-DM1_Ms7
[21] = read-out: sensitivity to free payload (IC50), N87-T-DM1_Ms17

For CC[C@H](C)[C@@H]([C@@H](CC(=O)N1CCC[C@H]1[C@H](OC)[C@@H](C)C(=O)N[C@@H](Cc1ccccc1)c1nccs1)OC)N(C)C(=O)[C@@H](NC(=O)C(C)(C)N)C(C)C [compound 0101, 2-methylalanyl-N-[(3R,4S,5S)-3-methoxy-1-{(2S)-2-[(1R,2R)-1-methoxy-2-methyl-3-oxo-3-{[(1 S)-2-phenyl-1-(1,3-thiazol-2-yl)ethyl]amino}propyl]pyrrolidin-1-yl}-5-methyl-1-oxoheptan-4-yl]-N-methyl-L-valinamide] (H-[Aib]V[Dil][Dolaproine]-Doe), the “sensitivity of N87-TM cells” value [1] was “retained sensitivity”, the IC50 [2] was 0.5 nM and the IC50 [3, 19] was 0.4 nM. The IC50 [3, 20] was 0.6 nM, the IC50 [3, 21] was 0.28 nM and the “sensitivity of T-DM1 resistant cells generated in vivo” value [3] was “surprisingly sensitive; also recorded: not resistant”.

For T-DM1, the tumor response ([4]; 10 mg/kg) was “complete regression of tumors”, the tumor response ([4]; 1 and 3 mg/kg) was “delayed tumor growth” and the bystander effect [5] was “is not”. For the same compound, the “mice in which tumor doubling was prevented for at least 60 days” value [6] was over 50%, the “prevention of tumor doubling” value [7] was “failed to do so” and the “mice responding to initial T-DM1 treatment” value [8] was 17 out of 20. The tumor response [9] was “inactive”, the tumor response [10] was “ineffective” and the tumor response [11] was “only provided some therapeutic benefit”.

In the case of COc1cccc2c1C(=O)c1c(O)c3c(c(O)c1C2=O)C[C@@](O)(C(=O)CO)C[C@@H]3O[C@H]1C[C@H](N)[C@H](O)[C@H](C)O1 [Doxorubicin], the “sensitivity of N87-TM cells” value [1] is reported as “lack of cross-resistance”, the IC50 [2] is reported as 48 nM and the IC50 [3, 19] is reported as 46 nM. For the same compound, the IC50 [3, 20] was 79 nM, the IC50 [3, 21] was 34 nM and the “sensitivity of T-DM1 resistant cells generated in vivo” value [3] was “No resistance”.

“EDB-L19-vc-0101: anti-EDB antibody L19 conventionally conjugated to vc-0101” was tested, and the “Avg IC50” value [12] was 15,346 ng/ml, the tumor response ([13]; 1 mg/kg) was “delayed tumor growth” and the tumor response ([13]; 3 mg/kg) was “complete regressions”. For the same compound, the tumor response ([13]; 3 mg/kg and […]) was “tumor regression”, the “efficacy compared to isotype negative control ADCs and disulfide linker ADCs” value ([13]; 1 and 3 mg/kg vs 10 mg/kg EDB-L19-diS-DM1, 5 mg/kg EDB-L19-diS-C2OCO-1569) was “greater efficacy” and the tumor response ([14]; 3 mg/kg) was “tumor regressions”. The tumor response ([14]; 3 mg/kg, and as low as […]) was “tumor regression”, the tumor response ([14]; 0.3, 1 and 3 mg/kg) was “tumor regression in a dose dependent manner” and the tumor response ([14]; highest doses evaluated (3 mg/kg ADC1; 1 mg/kg ADC9)) was “tumor regression”. For the same compound, the tumor response [15] was “tumor regression”, the tumor response [16] was “tumor regression in a dose dependent manner” and the tumor response [17] was “tumor regression in a dose dependent manner”. The tumor response [18] was “tumor regression”.

For CC(=O)O[C@H]1C(=O)[C@@]2(C)[C@H]([C@H](OC(=O)c3ccccc3)[C@]3(O)C[C@H](OC(=O)[C@H](O)[C@@H](NC(=O)c4ccccc4)c4ccccc4)C(C)=C1C3(C)C)[C@]1(OC(C)=O)CO[C@@H]1C[C@@H]2O [paclitaxel], the “sensitivity of N87-TM cells” value [1] was “lack of cross-resistance”.

COc1cc2cc(c1Cl)N(C)C(=O)C[C@H](OC(=O)[C@H](C)N(C)C(=O)CCS)[C@]1(C)O[C@H]1[C@H](C)[C@@H]1C[C@@](O)(NC(=O)O1)[C@H](OC)/C=C/C=C(\C)C2 [DM1] was tested, and the “sensitivity of N87-TM cells” value [1] was “retained sensitivity”.

For EDB-L19-diS-DM1, the “Avg IC50” value [12] was 237 ng/mL.
